Assay results from patent publication US20170044150A1, “IDENTIFICATION OF COMPOUNDS WHICH INHIBIT ATG8-ATG3 PROTEIN-PROTEIN INTERACTION AND THEIR USE AS ANTIPARASITICAL AGENTS” (THE JOHNS HOPKINS UNIVERSITY, priority 2014, published 2017).
Read-outs that look alike come from different tables or passages of the source. Each block holds one compound with its values, some of them ahead of it.

Tests used:
[1] = molecular target: PfAtg8-PfAtg3 interaction (Plasmodium falciparum, UniProt Q8IJK2); assay type: binding, P. falciparum
[2] = tested on: P. falciparum 3D7 blood stages; conditions: asterisk / PubChem reported values; read-out: IC50 Blood stage, derived from the literature; cited from earlier work
P. falciparum 3D7 = assay: SYBR Green I growth inhibition assay, blood stage; assay type: cell-based; conditions: Plasmodium falciparum
Method: P. falciparum blood stage culturing. P. falciparum 3D7 and FCR3 cultures were maintained using modified, previously published methods at 37° C., 2% hematocrit of human red blood cells (Science 1976, 193, 673-675). Complete culture media consisted of sterile RPMI 1640 media (Life Technologies), supplemented with 10% human serum, 0.005% hypoxanthine, and buffered with final concentrations of 0.6% HEPES and 0.26% NaHCO3. The FCR3 strain was maintained at 3% CO2 and 5% O2, 92% N2 atmosphere, while the 3D7 strain was maintained at 5% CO2, 5% O2, 90% N2 atmosphere.
SYBR Green I growth inhibition assay. 10 μL of 10× compound diluted in RPMI 1640 media (Gibco) with a constant concentration of 1% DMSO was added to a 96 well plate (Costar), 90 μL of 1.5% ring stage, synchronized with 5% w/v sorbitol P. falciparum 3D7 parasites, 1% hematocrit, in culture media with 10% v/v human serum with 10 μg/mL gentamycin. Each compound concentration and 1% v/v DMSO controls were run in triplicate. Plates were incubated at 37° C. in 5% O2, 5% CO2 and 90% N2 for 72 hours. Plates were frozen, thawed, and incubated with 100-μL 2× SYBR green in lysis buffer (20 mM Tris pH 7.5, 5 mM EDTA, 0.008% Saponin, 0.08% TritonX-100) in the dark for at least one hour. Fluorescence was measured with a plate reader (HTS 7000, Perkin Elmer) at excitation/emission wavelengths of 485/535 nm.
Plasmodium parasite growth inhibition assay. P. falciparum 3D7 parasites were cultured as previously described (J Med Chem 57:4521-4531(2014)). Briefly, the parasites were cultured in 10% v/v human serum with 10 μg/mL gentamycin and synchronized with 5% w/v sorbitol. 1.5% ring stage parasites were added to 96 well plates (Costar) containing serial dilutions, performed in triplicate, of compound in RPMI 1640 media (Gibco). Plates were incubated at 37° C. in 5% O2, 5% CO2, and 90% N2 for 72 h. Plates were frozen, thawed, and incubated with 100 μL 2× SYBR green in lysis buffer (20 mM Tris pH 7.5, 5 mM EDTA, 0.008% Saponin, 0.08% TritonX-100) in the dark for 1 h. Fluorescence was measured with a plate reader (HTS 7000, PerkinElmer) at excitation/emission wavelengths of 485/535 nm.

[3] = tested on: PfAtg8-PfAtg3 interaction; assay: SPR protein-protein interaction assay, PfAtg8-PfAtg3 (VLS compounds); assay type: binding, P. falciparum; conditions: 500 μM
Method: Surface Plasmon Resonance (SPR) protein-protein interaction assay. All measurements were carried out on a BiaCore 3000 instrument. We used the previously described SPR competition assay to test inhibition of the PfAtg8-PfAtg3 and hLC3-hAtg3 interaction. The standard running buffer was 10 mM HEPES, 150 mM NaCl, 0.01% Tween 20, adjusted to pH 7.5. Prior to performing SPR assays, all solutions were sterile filtered and degassed for 1 h at room temperature. For small molecule inhibitor studies, the same running buffer was supplemented with 1% DMSO. All dose dependency measurements were carried out in triplicate and corrected for DMSO absorption effects using double referencing with interspersed blank injections and an untreated flow cell on the SPR chip and the SPR analysis software Scrubber 2.0 (BioLogics). For each interaction pair, a new CM5 SPR chip was used. To exclude surface decay during the experiment, positive control injections were interspersed every 12th injection. For all interaction studies, the Atg3 homologue was immobilized and the corresponding Atg8 partner was passed as an analyte over the chip in either the presence or absence of small molecule inhibitors, dissolved to 100 mM in 100% DMSO and tested at 500 μM final concentration. Prior to the immobilization of Atg3 to an SPR chip, a pH scouting from pH 6.0 to pH 4.0 in intervals of 0.5 pH units was carried out to determine the best pre-concentration conditions for immobilization. Briefly, flow cells of an SPR chip were activated using N-hydroxysuccinimide (NHS) and 1-ethyl-3-(3-dimethylaminopropyl)carbodiimide (EDC) for 7 min with a flow rate of 20 μl/min. For PfAtg3 immobilization, a solution of 50 μg/ml of PfAtg3 in 10 mM sodium acetate pH 5.0 was passed over one flow cell until >500 Response Units (RU) were captured. The same procedure was followed for the immobilization of hAtg3. Activated free binding sites on the chip were blocked using 1 M ethanolamine for an additional 7 min. All experiments were carried out at 25° C. with a 40 μl/min flow rate and 75 s contact time, followed by a 1 min dissociation time and a 25 μl regeneration injection of 2 M MgCl2.
The dose-response curves were used to determine the approximate concentration of analyte (PfAtg8 or hLC3) needed to obtain a particular response unit (RU), typically in the range of 100-150 RU's. A fixed amount of analyte was then passed over the chip resulting in at least 100-150 response units (RU) in the absence of small molecules.

[4] = inhibition of PfAtg8-PfAtg3 interaction

Chain of PfAtg8-PfAtg3 interaction (Plasmodium falciparum, UniProt Q8IJK2) (Q8IJK2 whole entry C32I/C119S/C122S, form open): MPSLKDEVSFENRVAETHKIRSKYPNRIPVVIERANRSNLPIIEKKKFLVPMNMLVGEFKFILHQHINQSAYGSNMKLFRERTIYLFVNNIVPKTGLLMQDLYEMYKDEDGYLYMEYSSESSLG

Compound: CSc1ccccc1C(=O)Nc1nc(-c2ccccn2)cs1 [Compound 2, 2-methylsulfanyl-N-(4-pyridin-2-yl-1,3-thiazol-2-yl)benzamide]
LEAN (SPR) ([1]; -log (IC50)/number of heavy atoms): 0.22
IC50 ([1]; read-out: IC50 SPR, inhibition of PfAtg8-PfAtg3 interaction): 15000 nM
IC50 [2]: 200 nM

Compound: O=C(Nc1nc(-c2ccccn2)cs1)c1ccccc1Br [Compound 3, 2-bromo-N-(4-pyridin-2-yl-1,3-thiazol-2-yl)benzamide]
IC50 [2]: 1580 nM

Compound: Cc1ccc(-c2cc3c(SCC(=O)Nc4cc(C(F)(F)F)ccc4Cl)nccn3n2)cc1 [Compound 4, N-[2-chloro-5-(trifluoromethyl)phenyl]-2-[2-(4-methylphenyl)pyrazolo[1,5-a]pyrazin-4-yl]sulfanylacetamide]
IC50 SPR [1, 4]: None

Compound: CN(C)c1ccc(N2C(N)=NC(N)=NC2(C)C)cc1 [Compound 5, 1-[4-(dimethylamino)phenyl]-6,6-dimethyl-1,3,5-triazine-2,4-diamine]
IC50 SPR [1, 4]: None

Compound: Brc1ccc(Nc2nc3ccccc3nc2Nc2ccc(Br)cc2)cc1 [Compound 6, 2-N,3-N-bis(4-bromophenyl)quinoxaline-2,3-diamine]
IC50 SPR [1, 4]: None

IC50 (P. falciparum 3D7; 3D7, two to three experiments, read-out: average IC50): 1480 ± 600 nM
Compound: COC(OC)c1ccc(C(=O)Nc2nc(-c3ccccn3)cs2)cc1 [Compound 9, 4-(Dimethoxymethyl)-N-[4-(pyridin-2-yl)-1,3-thiazol-2-yl]benzamide]

Compound: O=C(NCC1Cc2cccc(-c3ccncc3)c2O1)c1csc2c1CCCC2 (stereo not shown) [Compound C11]
precipitation at the concentration used in the assay [3]: either precipitated or caused protein precipitation

Compound: O=C(NCc1ccco1)C1CCN(S(=O)(=O)c2ccc(Br)cc2)CC1 [Compound C13, 1-(4-bromobenzene-sulfonyl)-N-(furan-2-ylmethyl)piperidine-4-carboxamide]
precipitation at the concentration used in the assay [3]: either precipitated or caused protein precipitation

Compound: CCc1c(C(=O)NCc2csc(-c3cnccn3)n2)[nH]c2ccccc12 [Compound C19, 3-ethyl-N-([2-(pyrazin-2-yl)-1,3-thiazol-4-yl]methyl)-1H-indole-2-carboxamide]
precipitation at the concentration used in the assay [3]: either precipitated or caused protein precipitation

Compound: O=C(NCc1csc(-c2cnccn2)n1)c1cc2sccc2[nH]1 [Compound C30, N-([3-(pyrazin-3-yl)-1,3-thiazol-4-yl]methyl)-4H-thieno[3,2-b]pyrrole-5-carboxamide]
precipitation at the concentration used in the assay [3]: either precipitated or caused protein precipitation

Compound: CCN(CC)CCCC(C)Nc1ccnc2cc(Cl)ccc12 (stereo not shown) [chloroquine, reference compound]
IC50 (P. falciparum 3D7; 3D7): 3 ± 2 nM
